A short description of one data set: method code SF-AS, from Dallet, P.; Dubost, J.; Colleter, J.; Audry, E.; Creuzet, M. (1985). QSAR in a series of alpha-adrenolitic molecules: optimization of physicochemical parameters. Eur J Med Chem, 20(6)551-557.
Details: not given
Take `Cc1cc(OCCN(C)C)c(C(C)C)cc1O`: the logP stood at 2.93.

The molecule `CC(=O)Oc1cc(C(C)C)c(OCCN(C)C)cc1C` returned a logP of 3.17.

`CNCCOc1cc(C)c(O)cc1C(C)C`: the lipophilicity (logP) is 2.35.

In turn, `Cc1cc(OCCN(C)C)c(C(C)C)cc1OC1CCCCC1=O` (stereo not given) returned a log partition coefficient (logP) of 3.63.

As to `Cc1ccc(C(C)C)c(OCCN(C)C)c1`, the logP worked out at 3.79. The logP values of the last two molecules are within 0.2 log units of each other.

On to `COc1cccc(OC)c1OCCN(C)CCOc1cc(C)c(O)cc1C(C)C`, for which the logP is 3.12.

Assay in another data set: not given
Details: not given
`Cc1ccc(Cl)cc1` yielded a lipophilicity (logP) of 3.42.

In the case of `ClC(Cl)(Cl)C(Cl)(Cl)Cl`, the logP came out at 3.82.

As to `Cc1c(Cl)cccc1Cl`, the logP turned out to be 4.29.

For the molecule `Nc1ccccc1Cl`, the logP was found to be 1.74.

For the molecule `Nc1cc(Cl)c(Cl)c(Cl)c1Cl`, the logP turned out to be 3.94.

A short description of a further data set: method code SF-AS, from DOI: 10.1016/0021-9673(91)80064-n.
Details: not given
Take `C=CC(=O)NCCCN1CCSCC1`: the logP was determined as 0.54.

Regarding `C=CC(=O)NCCN(C)C`, the logP is -0.25.

For the molecule `C=CC(=O)NCCc1c[nH]cn1`, the lipophilicity (logP) is -0.21.

With `C=CC(=O)NCCCN(CC)CC`, the logP was found to be 0.72.

The next data set can be described thus: from Pratesi, P.; Villa, L.; Ferri, V.; DeMicheli, C.; Grana, E.; Grieco, C.; Silipo, C.; Vittoria, A. (1979). On the additive-constitutive properties of substituent hydrophobic parameters in a set of ….
Details: not given
The molecule `OCCNc1ccccc1` yielded a lipophilicity (logP) of 0.82.

For `CC(=O)CCC(=O)O`, the logP is -0.49.

In turn, `O=C(O)CCCC(=O)O` had a lipophilicity (logP) of -0.29.

On to `C=CC#N`, for which the logP came out at 0.25.

As for `c1ccc(C2CO2)cc1` (stereo not given), the lipophilicity (logP) is 1.84.

A short description of the next data set: method code SF-AS, from DOI: 10.1007/bf00165040, PMID: 3033523. The settings on record: pH 7.4.
`Nc1ncnc2c1nc(Sc1ccc(Cl)cc1)n2C1OC2COP(=O)(OCc3ccccc3)OC2C1O` (stereo not given) displayed a logD of 2.24.

Turning to `CC(C)(C)Sc1nc2c(N)ncnc2n1C1OC2COP(=O)(Oc3ccccc3)OC2C1O` (stereo not given), the log distribution coefficient (logD) is 2.05.

Consider `Nc1ncnc2c1nc(SCc1ccccc1)n2[C@@H]1O[C@@H]2COP(=O)(O)O[C@H]2[C@H]1O`, for which the logD is -1.15.

With `Nc1ncnc2c1nc(Br)n2C1OC2COP(=O)(Oc3ccccc3)OC2C1O` (stereo not given), the logD was 1.58.

As to `CSc1nc2c(N)ncnc2n1C1OC2COP(=O)(OCc3ccccc3)OC2C1O` (stereo not given), the logD turned out to be 1.62.

Regarding `Nc1ncnc2c1nc(Sc1ccccc1)n2C1OC2COP(=O)(OCc3ccccc3)OC2C1O` (stereo not given), the logD was 1.92.

Assay in another data set: not given
Details: not given
The source holds these as a separate data set.
In the case of `c1ccc(-c2ccc(-c3ccccc3)cc2)cc1`, the logP stood at 6.03.

Turning to `Cc1cc(C)c(C)cc1C`, the lipophilicity (logP) came to 4.24.

The molecule `O=c1cc(-c2ccccc2)oc2c1ccc1ccccc12` yielded a logP of 4.82.

Take `O=[N+]([O-])c1ccc(O)c([N+](=O)[O-])c1`: the logP came out at 1.79.

`Brc1ccsc1` gave a logP of 2.59.

A further data set in a line: method code SF-RC, from DOI: 10.1021/jm301492y, PMID: 23214511. The following applies: pH 7.4.
The molecule `NC(=O)c1cccc(-c2cccc(C(=O)NC3CCCCC3)c2)c1` displayed a log distribution coefficient (logD) of 3.61.

On to `O=C(NC1CCCCC1)c1cccc(C2=NCCO2)c1`, for which the logD was 3.01.

`O=C(NC1CCC1)c1ccc(O)c(-c2ccccc2)c1` returned a logD of 3.42.

For the molecule `O=C(NC1CCCC1)c1cccc(C2=NCCO2)c1`, the logD stood at 2.35.

With `CCCCCCNC(=O)c1cccc(C2=NCCO2)c1`, the logD is 3.33.

`O=C(NC1CCCC1)c1ccc(O)c(-c2ccccc2)c1` had a logD of 2.8.

Assay in the next data set: not given
Details: not given
The source holds these as a separate data set.
Consider `CC(=O)Nc1c(I)c(C(=O)NC(CO)CO)c(I)c(C(=O)NC(CO)CO)c1I`, for which the lipophilicity (logP) was -2.22.

Turning to `CC(=O)N(CCO)c1c(I)c(C(=O)NCC(O)CO)c(I)c(C(=O)NCC(O)CO)c1I` (stereo not given), the logP is -2.4.

As to `CC(=O)N(C)c1c(I)c(C(=O)NCC(O)CO)c(I)c(C(=O)NCC(O)CO)c1I` (stereo not given), the logP is -2.13.

Consider `CC(=O)Nc1c(I)c(C(=O)N(C)CC(O)CO)c(I)c(C(=O)N(C)CC(O)CO)c1I` (stereo not given), for which the logP is -2.14.

The molecule `CC(=O)N(CCO)c1c(I)c(C(=O)N(C)CC(O)CO)c(I)c(C(=O)N(C)CC(O)CO)c1I` (stereo not given) came in with a logP of -2.33.

`CC(=O)N(CC(O)CO)c1c(I)c(C(=O)NCCO)c(I)c(C(=O)NCCO)c1I` (stereo not given) came in with a log partition coefficient (logP) of -1.84.

Another data set is described as follows: method code SF-GLC, from DOI: 10.1016/s0045-6535(02)00841-x, PMID: 12615110.
Details: not given
`Brc1ccc(Oc2cc(Br)c(Br)cc2Br)c(Br)c1` registered a logP of 7.32.

`Brc1ccc(Oc2ccc(Br)c(Br)c2Br)c(Br)c1` gave a log partition coefficient (logP) of 7.37.

In turn, `Brc1cc(Br)c(Oc2cc(Br)c(Br)cc2Br)cc1Br` displayed a lipophilicity (logP) of 7.9.

As for `Brc1ccc(Oc2ccccc2Br)c(Br)c1`, the log partition coefficient (logP) is 5.74.

As to `Brc1ccc(Oc2ccc(Br)cc2Br)cc1`, the logP worked out at 5.94.

Assay in another data set: not given
Details: not given
This is another data set of the same source.
As to `CCCCCCCN1C(=O)NC(c2ccc(Br)cc2)(c2ccc(Br)cc2)C1=O`, the log partition coefficient (logP) came out at 6.95.

In turn, `O=C1NC(c2ccc(Br)cc2)(c2ccc(Br)cc2)C(=O)N1CCN1CCOCC1` showed a lipophilicity (logP) of 4.59.

The molecule `CCCCCCN1C(=O)NC(Cc2c[nH]c3ccccc23)C1=O` (stereo not given) returned a lipophilicity (logP) of 3.13.

On to `O=C1NC(Cc2c[nH]c3ccccc23)C(=O)N1Cc1cccc2ccccc12` (stereo not given), for which the log partition coefficient (logP) amounted to 3.03. The logP values of the last two molecules are within 0.2 log units of each other.

For the molecule `CCCN1C(=O)NC(c2ccccc2)(c2ccccc2)C1=O`, the lipophilicity (logP) is 2.86.

The molecule `CCCCCCN1C(=O)NC(c2ccc(Br)cc2)(c2ccc(Br)cc2)C1=O` yielded a logP of 6.39.

A further data set can be described thus: method code SF-AS, from DOI: 10.1007/bf02877675, PMID: 411721.
Details: not given
`N#CC(C#N)=NNc1ccc(Cl)c(Cl)c1` had a logP of 3.42.

Consider `N#CC(C#N)=NNc1ccccc1Cl`, for which the logP worked out at 2.65.

As for `N#CC(C#N)=NNc1ccc(Br)cc1`, the logP worked out at 3.38.

`N#CC(C#N)=NNc1ccc([N+](=O)[O-])cc1` gave a logP of 2.34.

Consider `CC(=O)c1ccc(NN=C(C#N)C#N)cc1`, for which the logP was determined as 2.17. This logP and that of the molecule before are within 0.2 log units of each other.

In the case of `N#CC(C#N)=NNc1ccc(Cl)cc1`, the logP came to 3.08.

Another data set is described as follows: method code SF-AS, from PMID: 3699148. The following applies: pH 7.4.
`NC(=O)c1ccccc1NCCCO` returned a pH-dependent lipophilicity (logD) of 0.7.

In the case of `CCCCOCCNc1ccccc1C(N)=O`, the logD was 2.27.

With `Cc1ccccc1OCCNc1ccccc1C(N)=O`, the logD came out at 2.94.

In the case of `CC(O)CNc1ccccc1C(N)=O` (stereo not given), the logD worked out at 0.62.

`CCCCOCCNc1ccc(Cl)cc1C(N)=O` showed a pH-dependent lipophilicity (logD) of 2.99.

`NC(=O)c1ccccc1NCC(O)CO` (stereo not given) registered a pH-dependent lipophilicity (logD) of -0.8.

Another data set can be described thus: method code SF-AS, from DOI: 10.1021/jm00223a031, PMID: 810572.
Details: not given
For the molecule `Cc1ccnc2c(O)ccc(O)c12`, the logP worked out at 1.59.

As to `Oc1ccnc2c(O)cccc12`, the logP was found to be 0.62.

In turn, `Cc1ccc(O)c2ncccc12` had a logP of 2.37.

Molecule `Cc1ccnc2c(O)ccc(C)c12` returned a logP of 2.71.

`COc1ccc(O)c2nccc(C)c12` gave a logP of 2.75. The logP values of the last two molecules are within 0.2 log units of each other.

`Nc1ccc(O)c2ncccc12` had a logP of -0.11.

Another data set in a line: method code SF-RC, from DOI: 10.1016/j.nucmedbio.2006.06.006, PMID: 16934700. The settings on record: pH 7.4.
`FCCOc1ccc(-c2cc3ccccc3s2)cc1`: the logD turned out to be 2.83.

`CN(C)c1ccc(-c2cc3ccccc3s2)cc1` showed a logD of 3.44.

Turning to `Oc1ccc(-c2cc3ccccc3s2)cc1`, the pH-dependent lipophilicity (logD) is 2.99.

`Nc1ccc(-c2cc3ccccc3s2)cc1` yielded a log distribution coefficient (logD) of 2.87.

The molecule `FCCNc1ccc(-c2cc3ccccc3s2)cc1` came in with a logD of 3.46.

`CNc1ccc(-c2cc3ccccc3s2)cc1` showed a logD of 3.2.

Assay in the next data set: not given
Details: not given
This is another data set of the same source.
Molecule `O=C(CCN1CCC(O)(c2ccc(Cl)cc2)CC1)c1ccc(F)cc1` registered a lipophilicity (logP) of 3.24.

`O=C(CCCCCN1CCC(O)(c2ccc(Cl)cc2)CC1)c1ccc(F)cc1` had a logP of 4.16.

Molecule `OC1(c2ccc(Cl)cc2)CCN(CCCSc2ccc(F)cc2)CC1` displayed a logP of 4.17. The logP values of the last two molecules are within 0.2 log units of each other.

In the case of `CC(C)c1ccc(C(=O)CCCN2CCC(O)(c3ccc(Cl)cc3)CC2)cc1`, the logP came to 4.2.

With `O=C(CCCCN1CCC(O)(c2ccc(Cl)cc2)CC1)c1ccc(F)cc1`, the logP came out at 3.81.

For the molecule `OC(CCCN1CCC(O)(c2ccc(Cl)cc2)CC1)c1ccc(F)cc1` (stereo not given), the logP came out at 3.26.

A further data set can be described thus: method code SF-AS, from DOI: 10.1016/0147-6513(87)90041-8, PMID: 3830021.
Details: not given
`CCn1c(O)c(C#N)c(C)c(/N=N/c2ccc(Cl)cc2[N+](=O)[O-])c1=O` yielded a lipophilicity (logP) of 3.4.

Molecule `CC(=O)Nc1cc(NCC(C)O)c(Cl)cc1/N=N/c1ccc([N+](=O)[O-])cc1Cl` (stereo not given) gave a logP of 4.

The molecule `CCCCN(CCOC(C)=O)c1ccc(/N=N/c2c(C#N)cc([N+](=O)[O-])cc2C#N)c(C)c1` registered a logP of 4.

In turn, `N#CCCN(CCO)c1ccc(/N=N/c2ccc([N+](=O)[O-])cc2Cl)cc1` came in with a logP of 3.9.

In the case of `CCCCC(CC)Cn1c(O)c(C#N)c(C)c(/N=N/c2ccccc2[N+](=O)[O-])c1=O` (stereo not given), the logP was found to be 4.5.

For the molecule `CCCCn1c(=O)c2c(N)c3c(=O)c4ccccc4c(=O)c3c(N)c2c1=O`, the logP is 4.

Source of the values: the SangsterLogP compilation.
